{"source": "patent US9950005B2", "about": "“Compositions comprising biomembrane sealing agent for treatment of neuronal injury, and methods of use” (WARSAW ORTHOPEDIC, INC., priority 2006, dated 2018)", "type_in_all_cases": "in vivo, rat", "key": {"[1]": {"tested_on": "carrageenan-induced hind paw acute inflammation", "assay": "Carrageenan hind paw acute inflammation model, mechanical allodynia (up-down method)", "details": "Example 7, 24 h after carrageenan", "procedure": "Animals were treated with saline (0.5% final), indomethacin, PEG, magnesium or combined PEG+magnesium solutions. Each animal received 2 injections, the first one 1 hour following carrageenan injection and the second injection 6 hours later. The total dose of PEG and magnesium chloride administered was of 2 and 0.135 g/kg (body weight) respectively. There were 10 animals per group.\nIndomethacin (Fluka, cat. 57413, lot 450544/1) was dissolved in 25% hydroxyl-propyl beta cyclodextrin (hpBCD) by gentle heating and stirring. The PEG solution was composed of PEG3350 at 30% in 0.5% saline, the magnesium solution was composed of magnesium chloride at 2% and the combined PEG+magnesium solution was composed of 30% PEG3350+2% Magnesium Chloride (custom made by AAIPharma Developmental Services, Wilmington, N.C.). […]\nTwenty-four hours following carrageenan injection into the left paw, the same paw was tested for mechanical allodynia. Baseline and post-treatment values for non-noxious mechanical sensitivity were evaluated using 8 Semmes-Weinstein filaments (Stoelting, Wood Dale, Ill., USA) with varying stiffness (0.4, 0.7, 1.2, 2.0, 3.6, 5.5, 8.5, and 15 g) according to the up-down method (Chaplan et al., 1994). […]\nTo evaluate the significance of difference between experimental groups, data were analyzed using an unpaired, two-tailed t statistical test with confidence intervals of 95%."}, "[2]": {"tested_on": "controlled cortical impact model of brain injury", "assay": "Morris Water Maze test of cognitive function after controlled cortical impact TBI", "from_the_text": "Male Sprague-Dawley rats (Harlan Sprague-Dawley, Indianapolis, Ind.), weighing 350-450 grams each were given free access to food and water before the experiment. The animals were anesthetized with halothane (1% in 70%/30% […] by mask).\nThe controlled cortical impact model of brain injury utilized in this study has been described in detail (Scheff and Sullivan, 1999). Animals were anesthetized with isoflorane and placed in a stereotaxic frame in the […] position. A 6 mm craniotomy located approximately midway between bregma and lambda, just above the somatosensory cortex, was made using a Michele trephine. The skull disk was then removed without disturbing the underlying dura mater. The exposed brain was injured using an electronically controlled piston (5 mm diameter, 65 kdynes). The animals in the “sham” group underwent identical surgical procedures, but the surface of the brain was not impacted.\nFollowing surgery, animals were placed in their home cage and dosing was initiated. Animals were treated with saline (Group 1: sham, Group 2: injured), PEG (Group 3: injured), magnesium (Group 4: injured) or a combination of PEG and magnesium solutions (Group 5: injured). The PEG solution was composed of PEG3350 at 30% in 0.5% saline (custom made by AAIPharma Developmental Services, Wilmington, N.C.). […] The magnesium solution was diluted in saline 1:1 before intravenous injection as recommended by the manufacturer. In the cases of combined PEG+Mg combined treatments, animal received the PEG and magnesium components from two individual solutions.\nThe first two injections were administered 15 minutes following injury. Another round of two injections was given 6 hours later. […] The compounds tested were administered by bolus intravenous injection. There were 10 animals per group.\nThis behavioral endpoint measure the ability of the rat to learn a new task based on the memorization of spatial cues. […]. […]\nTo evaluate the significance of difference between experimental groups, data were analyzed using an unpaired, two-tailed t statistical test with confidence intervals of 95%. […]"}, "[3]": {"tested_on": "spinal cord contusion (T10, pneumatic impactor)", "assay": "Spinal cord lesion volume after spinal cord contusion (dural impact)", "details": "Example 4, total PEG 2 g/kg, magnesium sulfate 0.12 g/kg i.v., PEG change not statistically significant", "quoted_text": "Sprague-Dawley female rats (200-225 gm) received a spinal cord contusion using the Precision Scientific Inc pneumatic impactor. Prior to surgery, rats were assigned to different treatment groups based on a randomized block design so that on any given surgery day all treatments would be included. […] The vertebral column was stabilized with angled clamps on the upper thoracic (T8) and lumbar (T11) levels and the impactor with a tip diameter of 2 mm was delivered at approximately 50 kd onto the exposed, intact dura overlying the dorsal spinal cord. The impactor was immediately removed, the wound irrigated with saline, and the muscle and skin openings sutured together. Female animals were used due to the paralysis associated with the injury and ease of voiding the bladder.\nAt the end of the study, the spinal cords were extracted and fixed in 4% paraformaldehyde. […] Tissue sparing was determined by computed image analysis be from 10 evenly spaced sections through the injured T10 segment. […]"}, "[4]": {"tested_on": "controlled clip-compression injury at T4", "assay": "Neuropathic pain (mechanical allodynia, Semmes-Weinstein monofilament) after SCI", "details": "Example 6; mechanical allodynia up to 3 weeks post-injury", "procedure": "Animals were prepared as described in Example 3. Animals were tested for the development of neuropathic pain before and up to 3 weeks post-injury. Neuropathic pain occurrence and severity was evaluated by the response of the animal to a stimulus that is normally not painful or allodynia. […] The monofilament was applied 10 times for 3 seconds, with each stimulus being separated by a 5 second interval, and the number of avoidance responses out of a possible 10 were recorded. Avoidance responses were defined as flinching, escape, vocalization, or abnormal aggressive behaviors. The scoring system used to monitor mechanical allodynia has been presented in details in Gris et al., 2004. Mechanical allodynia testing was conducted twice per week and the 2 tests were averaged for each animal and reported as a weekly pain score. To evaluate the significance of difference between experimental groups, data were analyzed using an unpaired, two-tailed t statistical test with confidence intervals of 95%. The Welch's modification was also used to analyze the motor recovery to take in account the significant variability in the control group."}}}
{"smiles": "COc1ccc2c(c1)c(CC(=O)O)c(C)n2C(=O)c1ccc(Cl)cc1", "note": "[Indomethacin]", "values": [{"measurement": "mean pain score (mechanical allodynia)", "setting": "[1]; carrageenan-saline 3.4+/−0.5, sham 12.7+/−1.1, higher is better", "value": "5.6+/−0.9"}]}
{"smiles": "[Cl-].[Cl-].[Mg+2]", "note": "[magnesium chloride]", "values": [{"measurement": "effect on cognitive recovery after TBI", "setting": "[2]; Example 2, total 1.4 g/kg PEG, 0.230 mmol/kg magnesium chloride, 2 injections 15 min and 6 h post-TBI", "value": "no significant effect"}, {"measurement": "effect on the loss of cognitive functions following brain injury", "setting": "[2]; summary statement in description", "value": "no effect"}, {"measurement": "effect on the pain score relative to animals treated with saline", "setting": "[1]; total PEG 2 g/kg, magnesium chloride 0.135 g/kg", "value": "no significant effect"}]}
{"smiles": "O=S(=O)([O-])[O-].[Mg+2]", "note": "[Mg, magnesium sulfate]", "values": [{"measurement": "reduction of the lesion volume relative to control group (SCI-Saline)", "setting": "[3]", "value": 33, "unit": "%"}, {"measurement": "effect on cognitive functions following TBI", "setting": "[2]; Example 1, i.v. 15 min and 6 h post-injury, total PEG 1.4 g/kg, magnesium sulfate 0.230 mmol/kg, Morris Water Maze day 9-14", "value": "no effect"}, {"measurement": "effect on the development of neuropathic pain after SCI", "setting": "[4]", "value": "no significant effect"}]}
